Biological target: human Nav1.7 (Homo sapiens (Human), UniProt Q15858)
Assay: FLIPR or FLIPR TETRA sodium dye assay with KCl and test article pre-incubation
Format: cell-based
Settings: read-out: Nav1.7 Activity (μM) FLIPR assay IC50 (μM) ± SEM

Sequence of human Nav1.7 (Q15858 with tags, fused parts or gaps limits assumed): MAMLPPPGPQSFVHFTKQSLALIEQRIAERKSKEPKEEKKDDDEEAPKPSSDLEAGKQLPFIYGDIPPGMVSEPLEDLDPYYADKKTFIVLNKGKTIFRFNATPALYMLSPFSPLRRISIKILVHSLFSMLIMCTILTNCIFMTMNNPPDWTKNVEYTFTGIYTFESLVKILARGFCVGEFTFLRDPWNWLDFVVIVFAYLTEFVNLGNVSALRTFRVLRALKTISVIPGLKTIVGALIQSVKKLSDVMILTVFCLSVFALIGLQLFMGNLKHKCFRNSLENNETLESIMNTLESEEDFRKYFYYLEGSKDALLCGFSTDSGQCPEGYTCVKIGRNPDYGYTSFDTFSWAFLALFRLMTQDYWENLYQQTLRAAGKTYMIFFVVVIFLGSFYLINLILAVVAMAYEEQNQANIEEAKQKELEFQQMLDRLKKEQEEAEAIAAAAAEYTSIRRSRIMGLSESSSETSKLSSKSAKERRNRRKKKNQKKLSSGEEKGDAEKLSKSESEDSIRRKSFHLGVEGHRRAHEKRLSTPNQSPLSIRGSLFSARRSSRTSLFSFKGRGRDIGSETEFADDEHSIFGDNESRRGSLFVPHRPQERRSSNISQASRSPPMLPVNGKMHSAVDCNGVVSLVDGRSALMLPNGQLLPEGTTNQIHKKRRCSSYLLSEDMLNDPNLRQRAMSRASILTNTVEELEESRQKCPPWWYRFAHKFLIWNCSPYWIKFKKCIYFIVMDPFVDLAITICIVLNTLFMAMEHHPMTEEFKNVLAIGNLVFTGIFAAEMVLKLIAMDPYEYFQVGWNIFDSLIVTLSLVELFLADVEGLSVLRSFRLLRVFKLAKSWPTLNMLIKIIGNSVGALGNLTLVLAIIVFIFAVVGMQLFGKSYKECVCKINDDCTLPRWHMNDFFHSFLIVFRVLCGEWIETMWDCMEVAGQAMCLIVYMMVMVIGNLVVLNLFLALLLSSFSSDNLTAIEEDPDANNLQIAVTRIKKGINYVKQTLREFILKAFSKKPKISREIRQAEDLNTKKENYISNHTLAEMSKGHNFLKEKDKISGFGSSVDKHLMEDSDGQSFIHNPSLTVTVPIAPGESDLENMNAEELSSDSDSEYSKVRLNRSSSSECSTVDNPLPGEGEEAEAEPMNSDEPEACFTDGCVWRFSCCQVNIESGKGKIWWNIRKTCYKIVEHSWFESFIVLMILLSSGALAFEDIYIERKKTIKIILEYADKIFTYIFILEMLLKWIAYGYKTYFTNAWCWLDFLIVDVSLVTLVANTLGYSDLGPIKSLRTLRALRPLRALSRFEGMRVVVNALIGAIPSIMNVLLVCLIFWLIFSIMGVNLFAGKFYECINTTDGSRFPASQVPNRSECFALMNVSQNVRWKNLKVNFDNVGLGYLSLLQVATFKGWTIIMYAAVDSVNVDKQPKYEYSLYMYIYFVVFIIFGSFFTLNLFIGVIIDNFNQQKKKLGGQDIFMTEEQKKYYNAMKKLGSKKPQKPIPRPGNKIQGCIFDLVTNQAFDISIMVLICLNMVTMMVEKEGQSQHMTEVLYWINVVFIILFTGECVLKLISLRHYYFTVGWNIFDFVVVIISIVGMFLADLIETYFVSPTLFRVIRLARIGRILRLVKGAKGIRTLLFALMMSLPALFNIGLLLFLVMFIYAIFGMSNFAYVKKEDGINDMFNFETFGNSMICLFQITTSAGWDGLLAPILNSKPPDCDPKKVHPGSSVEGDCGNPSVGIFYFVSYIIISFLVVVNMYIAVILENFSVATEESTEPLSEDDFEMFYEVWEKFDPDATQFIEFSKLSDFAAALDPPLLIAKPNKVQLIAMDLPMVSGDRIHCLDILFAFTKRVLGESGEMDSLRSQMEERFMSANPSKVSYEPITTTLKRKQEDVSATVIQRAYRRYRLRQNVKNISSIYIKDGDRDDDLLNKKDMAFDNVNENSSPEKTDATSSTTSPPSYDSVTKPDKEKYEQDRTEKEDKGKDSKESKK

SMILES	IC50 [µM]
COCCOCC(=O)N[C@@H](CC(C)C)C(=O)Nc1cccc(-c2ccc(Oc3ccc(F)cc3)cc2)n1 [Compound 9, (S)-N-(6-(4-(4-fluorophenoxy)phenyl)pyridin-2-yl)-2-(2-(2-methoxyethoxy)acetamido)-4-methylpentanamide]	0.091 ± 0.02
CC(C)C[C@H](NC(=O)c1cccnc1)C(=O)Nc1cccc(-c2ccc(Oc3ccc(F)cc3)cc2)n1 [Compound 10, (S)-N-(1-((6-(4-(4-fluorophenoxy)phenyl)pyridin-2-yl)amino)-4-methyl-1-oxopentan-2-yl)nicotinamide]	0.091 ± 0.03
CC(C)C[C@H](NC(=O)NC(C)C)C(=O)Nc1cccc(-c2ccc(Oc3ccc(F)cc3)cc2)n1 [Compound 11, (S)-N-(6-(4-(4-fluorophenoxy)phenyl)pyridin-2-yl)-2-(3-isopropylureido)-4-methylpentanamide]	0.086 ± 0.02
CS(=O)(=O)Nc1cc(Cl)cc(-c2ccc(Oc3ccc(F)cc3)cc2)n1 [Compound 15, N-(4-chloro-6-(4-(4-fluorophenoxy)phenyl)pyridin-2-yl)methanesulfonamide]	0.26 ± 0.07
CS(=O)(=O)N(C[C@H](O)CO)c1cc(Cl)cc(-c2ccc(Oc3ccc(F)cc3)cc2)n1 [Compound 17, (S)-N-(4-chloro-6-(4-(4-fluorophenoxy)phenyl)pyridin-2-yl)-N-(2,3-dihydroxypropyl)methanesulfonamide]	0.094 ± 0.03
NS(=O)(=O)Nc1cc(Cl)cc(-c2ccc(Oc3ccc(F)cc3)cc2)n1 [Compound 18, N-(4-chloro-6-(4-(4-fluorophenoxy)phenyl)pyridin-2-yl)sulfamide]	1.5 ± 0.3
CS(=O)(=O)Nc1cc([C@H](O)CO)cc(-c2ccc(Oc3ccc(F)cc3)cc2)n1 [Compound 24, (S)-N-(4-(1,2-dihydroxyethyl)-6-(4-(4-fluorophenoxy)phenyl)pyridin-2-yl)methanesulfonamide]	2.9 ± 0.8
CS(=O)(=O)Nc1cccc(-c2ccc(Oc3ccc(F)cc3)cc2)n1 [Compound 27, N-(6-(4-(4-fluorophenoxy)phenyl)pyridin-2-yl)methanesulfonamide]	0.34 ± 0.05
O=S(=O)(Nc1cccc(-c2ccc(Oc3ccc(F)cc3)cc2)n1)C1CC1 [Compound 28, N-(6-(4-(4-fluorophenoxy)phenyl)pyridin-2-yl)cyclopropane Sulfonamide]	0.22 ± 0.07
Cn1cnc(S(=O)(=O)Nc2cccc(-c3ccc(Oc4ccc(F)cc4)cc3)n2)c1 [Compound 29, N-(6-(4-(4-fluorophenoxy)phenyl)pyridin-2-yl)-1-methyl-1H-imidazole-4-sulfonamide]	0.32 ± 0.05
N[C@@H](Cc1c[nH]cn1)C(=O)Nc1cccc(-c2ccc(Oc3ccc(F)cc3)cc2)n1 [Compound 31, (S)-2-amino-N-(6-(4-(4-fluorophenoxy)phenyl)pyridin-2-yl)-3-(1H-imidazol-4-yl)propanamide]	0.18 ± 0.02
CC(=O)N1CCC(C(=O)N[C@@H](Cc2c[nH]cn2)C(=O)Nc2cccc(-c3ccc(Oc4ccc(F)cc4)cc3)n2)CC1 [Compound 34, (S)-1-acetyl-N-(1-((6-(4-(4-fluorophenoxy)phenyl)pyridin-2-yl)amino)-3-(1H-imidazol-4-yl)-1-oxopropan-2-yl)piperidine-4-carboxamide]	0.58 ± 0.05
COCC(=O)N[C@@H](Cc1c[nH]cn1)C(=O)Nc1cccc(-c2ccc(Oc3ccc(F)cc3)cc2)n1 [Compound 35, (S)-N-(6-(4-(4-fluorophenoxy)phenyl)pyridin-2-yl)-3-(1H-imidazol-4-yl)-2-(2-methoxyacetamido)propanamide]	0.13 ± 0.02
O=C(CO)N[C@@H](Cc1c[nH]cn1)C(=O)Nc1cccc(-c2ccc(Oc3ccc(F)cc3)cc2)n1 [Compound 36, (S)-N-(6-(4-(4-fluorophenoxy)phenyl)pyridin-2-yl)-2-(2-hydroxyacetamido)-3-(1H-imidazol-4-yl)propanamide]	0.14 ± 0.01
CC(C)(O)C(=O)N[C@@H](Cc1c[nH]cn1)C(=O)Nc1cccc(-c2ccc(Oc3ccc(F)cc3)cc2)n1 [Compound 37, (S)-N-(6-(4-(4-fluorophenoxy)phenyl)pyridin-2-yl)-2-(2-hydroxy-2-methylpropanamido)-3-(1H-imidazol-4-yl)propanamide]	0.12 ± 0.03
CC(C)(C)OC(=O)N[C@@H](CC(=O)Nc1cccc(-c2ccc(Oc3ccc(F)cc3)cc2)n1)C(N)=O [Compound 40, (S)-tert-butyl (1-amino-4-((6-(4-(4-fluorophenoxy)phenyl)pyridin-2-yl)amino)-1,4-dioxobutan-2-yl)carbamate]	0.13 ± 0.03

SMILES	IC50 [µM]
CC(C)(C)OC(=O)N[C@@H](CC(N)=O)C(=O)Nc1cccc(-c2ccc(Oc3ccc(F)cc3)cc2)n1 [Compound 41, (S)-tert-butyl (4-amino-1-((6-(4-(4-fluorophenoxy)phenyl)pyridin-2-yl)amino)-1,4-dioxobutan-2-yl)carbamate]	0.066 ± 0.008
CC(C)C[C@H](NC(=O)C1CC1)C(=O)Nc1cc([C@H](O)CO)cc(-c2ccc(Oc3ccc(F)cc3)cc2)n1 [Compound 44, N-((S)-1-((4-((S)-1,2-dihydroxyethyl)-6-(4-(4-fluorophenoxy)phenyl)pyridin-2-yl)amino)-4-methyl-1-oxopentan-2-yl)cyclopropanecarboxamide]	0.059 ± 0.12
CC(C)C[C@H](NC(=O)c1ccccn1)C(=O)Nc1cc([C@H](O)CO)cc(-c2ccc(Oc3ccc(F)cc3)cc2)n1 [Compound 45, N-((S)-1-((4-((S)-1,2-dihydroxyethyl)-6-(4-(4-fluorophenoxy)phenyl)pyridin-2-yl)amino)-4-methyl-1-oxopentan-2-yl)picolinamide]	0.3 ± 0.07
O=C(N[C@@H](CO)C(=O)Nc1cccc(-c2ccc(Oc3ccc(F)cc3)cc2)n1)c1ccccn1 [Compound 54, Pyridine-2-carboxylic acid ((S)-1-{6-[4-(4-fluoro-phenoxy)-phenyl]-pyridin-2-ylcarbamoyl}-2-hydroxy-ethyl)-amide]	0.07 ± 0.02
O=C(N[C@@H](CO)C(=O)Nc1cccc(-c2ccc(Oc3ccc(F)cc3)cc2)n1)C1CC1 [Compound 55, Cyclopropanecarboxylic acid ((S)-1-{6-[4-(4-fluoro-phenoxy)-phenyl]-pyridin-2-ylcarbamoyl}-2-hydroxy-ethyl)-amide]	0.06 ± 0.006
O=C(N[C@@H](CO)C(=O)Nc1cccc(-c2ccc(Oc3ccc(F)cc3)cc2)n1)c1ccncc1 [Compound 57, N-((S)-1-{6-[4-(4-Fluoro-phenoxy)-phenyl]-pyridin-2-ylcarbamoyl}-2-hydroxy-ethyl)-isonicotinamide]	0.16 ± 0.03
Cc1cc(C(=O)N[C@@H](CO)C(=O)Nc2cccc(-c3ccc(Oc4ccc(F)cc4)cc3)n2)no1 [Compound 58, 5-Methyl-isoxazole-3-carboxylic acid ((S)-1-{6-[4-(4-fluoro-phenoxy)-phenyl]-pyridin-2-ylcarbamoyl}-2-hydroxy-ethyl)-amide]	0.11 ± 0.04
CC(C)(C)OC(=O)N[C@@H](CO)C(=O)Nc1cccc(-c2ccc(Oc3ccc(F)cc3)cc2)n1 [Compound 59, ((S)-1-{6-[4-(4-Fluoro-phenoxy)-phenyl]-pyridin-2-ylcarbamoyl}-2-hydroxy-ethyl)-carbamic acid tert-butyl ester]	0.31 ± 0.07
NC(=O)N[C@@H](CO)C(=O)Nc1cccc(-c2ccc(Oc3ccc(F)cc3)cc2)n1 [Compound 61, (S)-N-{6-[4-(4-Fluoro-phenoxy)-phenyl]-pyridin-2-yl}-3-hydroxy-2-ureido-propionamide]	0.12 ± 0.05
O=C1NCCN1CCNc1cc(Cl)cc(-c2ccc(Oc3ccc(F)cc3)cc2)n1 [Compound 64, 1-(2-((4-chloro-6-(4-(4-fluorophenoxy)phenyl)pyridin-2-yl)amino)ethyl)imidazolidin-2-one]	0.12 ± 0.01
O=C(Nc1cccc(-c2ccc(Oc3ccc(C(F)(F)F)cc3)cc2)n1)C(O)CO (stereo not shown) [Compound 76, 2,3-dihydroxy-N-(6-(4-(4-(trifluoromethyl)phenoxy)phenyl)pyridin-2-yl)propanamide]	> 20
CCC(=O)N[C@@H](Cc1cn(C)cn1)C(=O)Nc1cccc(-c2ccc(Oc3ccc(F)cc3)cc2)n1 [Compound 81, (S)-N-(6-(4-(4-fluorophenoxy)phenyl)pyridin-2-yl)-3-(1-methyl-1H-imidazol-4-yl)-2-propionamidopropanamide]	0.064 ± 0.01
CC(C)C(=O)N[C@@H](Cc1cn(C)cn1)C(=O)Nc1cccc(-c2ccc(Oc3ccc(F)cc3)cc2)n1 [Compound 82, (S)-N-(6-(4-(4-fluorophenoxy)phenyl)pyridin-2-yl)-2-isobutyramido-3-(1-methyl-1H-imidazol-4-yl)propanamide]	0.046 ± 0.005
Cn1cnc(C[C@H](NC(=O)C(C)(C)C)C(=O)Nc2cccc(-c3ccc(Oc4ccc(F)cc4)cc3)n2)c1 [Compound 83, (S)-N-(6-(4-(4-fluorophenoxy)phenyl)pyridin-2-yl)-3-(1-methyl-1H-imidazol-4-yl)-2-pivalamidopropanamide]	0.02 ± 0.002
CC(=O)N[C@@H](Cc1cn(C)cn1)C(=O)Nc1cc(-c2ccc(Oc3ccc(F)cc3)cc2)ccn1 [Compound 84, (S)-2-acetamido-N-(4-(4-(4-fluorophenoxy)phenyl)pyridin-2-yl)-3-(1-methyl-1H-imidazol-4-yl)propanamide]	0.29 ± 0.025
Cn1cnc(C[C@H](NC(=O)CC(F)(F)F)C(=O)Nc2cccc(-c3ccc(Oc4ccc(F)cc4)cc3)n2)c1 [Compound 86, (S)-3,3,3-trifluoro-N-(1-((6-(4-(4-fluorophenoxy)phenyl)pyridin-2-yl)amino)-3-(1-methyl-1H-imidazol-4-yl)-1-oxopropan-2-yl)propanamide]	0.084 ± 0.007

Same assay, conditions: recombinant Nav1.7/HEK293 cells; CoroNa Green sodium dye; veratridine + scorpion venom agonists; ± SEM

SMILES	IC50 [µM]
Cn1cnc(S(=O)(=O)Nc2cc([C@H](O)CO)cc(-c3ccc(Oc4ccc(F)cc4)cc3)n2)c1 [Compound 26, (S)-N-(4-(1,2-dihydroxyethyl)-6-(4-(4-fluorophenoxy)phenyl)pyridin-2-yl)-1-methyl-1H-imidazole-4-sulfonamide]	> 20
Nc1nc(O)cc(C(=O)Nc2cccc(-c3ccc(Oc4ccc(F)cc4)cc3)n2)n1 [Compound 65, 2-amino-N-(6-(4-(4-fluorophenoxy)phenyl)pyridin-2-yl)-6-hydroxypyrimidine-4-carboxamide]	> 20

Source: US9656959B2, “Substituted pyridines as sodium channel blockers” (Purdue Pharma L.P., priority 2010, dated 2017)
